Assay [1] deals with secretory duct of the sweat gland (whole sweat glands). The assay is described as follows: Test Example 2: time-lapse imaging of isolated whole sweat glands, average moving distance of nuclei of secretory duct cells. The format is cell-based, human. The settings on record: antiperspirant as prepared contacted first; stimulating agent of Production Example 4 (10 mM pyrocalpin); five cells; FIG. 3 to FIG. 8. The procedure: Each of the antiperspirants obtained in Examples 2 to 7 was contacted with the whole sweat glands respectively, and change of the average of moving distances of nuclei of cells of a secretory duct of the sweat gland was examined with passage of time. Whether or not nuclei of cells of the secretory duct of the sweat gland moved was determined based on the results shown in FIG. 3 to FIG. 8, and evaluated in accordance with the following criteria for evaluation. […] The maximum value of the average of moving distances of nuclei of cells of the secretory duct of the sweat gland exceeds 1 μm: the nuclei of cells of the secretory duct of the sweat glands are moved.

Assay [2] has the same test system. Briefly: Test Example 1: time-lapse imaging of isolated whole sweat glands, moving distance of nuclei after pyrocarpin stimulation. The format is cell-based, human. To be noted: for movement of the secretory duct of the sweat gland: observed in the time-lapse photographed image, antiperspirant contacted with whole sweat glands. The procedure:
As skin tissues, skin tissues which were refrigerated immediately after isolating from living donors and stored at 4° C. for 15 hours were used. The skin tissues were immersed in PBS containing 10 μM staining agent (Neutral Red), to label the sweat glands included in the skin tissues. Next, the dermis of each of the skin tissues including the staining agent was finely cut to obtain dermal segments. Whole sweat glands were collected from the dermal segments by using tweezers under an optical microscope.
The whole sweat glands obtained in Test Example 1(1) were immersed in the staining reagent mixture obtained in Production Example 1 at room temperature (24° C.) for 30 minutes, to stain the whole sweat glands. The stained whole sweat glands were washed with PBS.
The washed whole sweat glands obtained in Test Example 1(2) were allowed to stand on a glass bottom dish under a stereoscopic microscope manufactured by Leica under the trade name of M125. The collagen-containing liquid obtained in Production Example 2 was added dropwise to the whole sweat glands that were allowed to stand on the glass bottom dish. Next, the above-mentioned glass bottom dish was incubated at 37° C. for 5 minutes to gelate the collagen type I-A contained in the collagen-containing liquid placed on the whole sweat glands. Thereafter, 300 μL of PBS was added onto the above-mentioned whole sweat glands so as not to dry the whole sweat glands. Thus, the whole sweat glands were held on the glass bottom dish used as a support with the collagen type I-A so that the position of each of the whole sweat glands was retained, to obtain an observation sample.
While adhesion of the whole sweat glands to the glass bottom dish with the gelated collagen type I-A was confirmed under the stereoscopic microscope, an aliquot of Dulbecco's phosphate buffer [manufactured by Gibco, Catalog No. 14190-144] was added to the glass bottom dish used as a support.
The antiperspirant obtained in Example 1 in an amount of 3 μL was contacted with the whole sweat glands on the glass bottom dish in the observation sample. The observation of the whole sweat glands on the glass bottom dish with the time-lapse imaging was initiated by using a confocal laser scanning microscope for biological uses [inverted microscope manufactured by Olympus Corporation under the trade name of IX-83 equipped with a device manufactured by Olympus Corporation under the trade name of FV 1200]. At that time, the whole sweat glands were visualized by detecting fluorescence derived from the nuclear staining reagent bound to the nuclei and fluorescence derived from the cytoskeleton-staining reagent bound to the cytoskeleton. After 600 seconds passed from the initiation of the observation, 30 μL of the sweat gland-stimulating agent obtained in Production Example 3 was contacted with the whole sweat glands on the glass bottom dish, and thereafter the observation with the time-lapse imaging was continued. […]
Next, five cells were selected from a cell group in the lumen of the secretory duct in the time-lapse photographed image of the whole sweat glands, and five cells were selected from a cell group in the outer periphery of the secretory duct. […] In order to measure a moving distance of the nuclei of the cell, firstly changes (differences) in coordinates between consecutive frames were calculated by using X-coordinate and Y-coordinate of the nuclei of each cell in accordance with the formulae (XI) and (XII): […]

Assay [3] has as its system armpit sweating of expert panelists. Briefly: Test Example 3: degree of sweating scored by expert panelists after application to armpit and light exercise. The format is in vivo, human. The settings on record: applied to each armpit of ten expert panelists, light exercise; compared with control sample of Comparative Example 1 (PBS). The source says: The antiperspirant obtained in Example 1 is applied to each armpit of ten expert panelists having the same proficiency in evaluation skill, and then the expert panelists are subjected to a light exercise. Thereafter, each of the expert panelists gives a score of the degree of sweating on the basis of the following criteria for evaluation. In addition, each of the expert panelists gives a score of the degree of sweating in the same manner as in the above except that the control sample of Comparative Example 1 is used in place of the antiperspirant obtained in Example 1. The average of the scores given by the expert panelists is calculated.
0 point: sweat in a large amount.
2 points: slightly sweat.

For the compound `CC1(C)[C@@H](O)CC[C@]2(C)[C@H]3C(=O)C=C4[C@@H]5C[C@@](C)(C(=O)O)CC[C@]5(C)CC[C@@]4(C)[C@]3(C)CC[C@@H]12` [Example 3, 18β-glycyrrhetinic acid], in assay [1], the “movement of nuclei of cells of the secretory duct of the sweat gland (maximum of average of moving distances)” value is given as “hardly moved”.
As to `CC1(C(=O)O)CCC2(C)CCC3(C)C(=CC(=O)C4C5(C)CCC(O)C(C)(C)C5CCC43C)C2C1` (centres unmarked) [formula (IX)], the “movement of the secretory duct of the sweat gland” value in assay [2] is recorded as “the same tendency as the antiperspirant obtained in Example 1”. Also, the “average of the scores of the degree of sweating (0 to 4 points)” value (from here on “average of the scores … (0 to 4 points)”) in assay [3] is given as “the same tendency as the antiperspirant obtained in Example 1”.
Consider `CC1(C(=O)O)CCC2(C)CCC3(C)C(=CC(=O)C4C5(C)CCC(OC(=O)CCC(=O)O)C(C)(C)C5CCC43C)C2C1` (centres unmarked) [Example 1], for which the “movement of nuclei of the cells of the lumen of the secretory duct of the sweat gland” value in assay [2] (3 μL antiperspirant contacted first, 30 μL sweat gland-stimulating agent (100 mM pyrocarpin) after 600 seconds, FIG. 2A white circle) was “hardly moved”. The “movement of nuclei of the cells of the outer periphery of the secretory duct of the sweat gland” value in assay [2] (3 μL antiperspirant contacted first, 30 μL sweat gland-stimulating agent (100 mM pyrocarpin) after 600 seconds, FIG. 2A white triangle) is on record as “hardly moved”. Moreover, the “movement of the secretory duct of the sweat gland” value in assay [2] is given as “suppressed”. Moreover, the “average of the scores … (0 to 4 points)” value in assay [3] is “tends to be higher”.
Consider `CC1(C(=O)O)CCC2(C)CCC3(C)C(=CC(=O)C4C5(C)CCC(OC6OC(C(=O)O)C(O)C(O)C6OC6OC(C(=O)O)C(O)C(O)C6O)C(C)(C)C5CCC43C)C2C1` (centres unmarked) [formula (X)], for which the “movement of the secretory duct of the sweat gland” value in assay [2] is “the same tendency as the antiperspirant obtained in Example 1”. In assay [3], the “average of the scores … (0 to 4 points)” value is reported as “the same tendency as the antiperspirant obtained in Example 1”.
`CC1(C)CC[C@]2(C(=O)O)CC[C@]3(C)C(=CC[C@@H]4[C@@]5(C)CC[C@H](O)C(C)(C)[C@@H]5CC[C@]43C)[C@@H]2C1` [Example 5, oleanolic acid]: the “movement of nuclei of cells of the secretory duct of the sweat gland (maximum of average of moving distances)” value in assay [1] is “hardly moved”.
Turning to β-amylin [Example 7], the “movement of nuclei of cells of the secretory duct of the sweat gland (maximum of average of moving distances)” value in assay [1] is listed as “hardly moved”.
Same read-out and setting: under α-amylin [Example 6] stands “hardly moved”; under `CC1(C)[C@@H](O)CC[C@]2(C)[C@H]3C(=O)C=C4[C@H]5C[C@@](C)(C(=O)O)CC[C@]5(C)CC[C@@]4(C)[C@]3(C)CC[C@@H]12` [Example 2, 18α-glycyrrhetinic acid], “hardly moved”.
For the compound `C[C@H]1[C@H](C)CC[C@]2(C(=O)O)CC[C@]3(C)C(=CC[C@@H]4[C@@]5(C)CC[C@H](O)C(C)(C)[C@@H]5CC[C@]43C)[C@H]12` [Example 4, ursolic acid], the “movement of nuclei of cells of the secretory duct of the sweat gland (maximum of average of moving distances)” value in assay [1] was “hardly moved”.
